# Data: patent US9340532B2, “Methods and compositions for inhibiting CNKSR1” (PHUSIS THERAPEUTICS, INC., priority 2012, dated 2016)
# Experiments:
# [1] = molecular target: T1, PH-domain of CNKSR1 (Homo sapiens, UniProt Q969H4); test: SPR binding (Biacore 2000) to CNKSR1 PH-domain, initial hits; conditions: Table 5
# T1 sequence (Q969H4 403-502 limits assumed): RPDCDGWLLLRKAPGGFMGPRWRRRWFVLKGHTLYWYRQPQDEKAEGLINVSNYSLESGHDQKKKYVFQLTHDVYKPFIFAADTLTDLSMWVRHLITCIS
# Procedure: In embodiments, a homology model for the PH-domain of CNSKR1 based on known PH-domain crystal structures can be developed. The docking program PHuDock® can be used to identify potential inhibitors of CNKSR1. […] The binding of the compounds to the expressed PH-domain of CNKSR1 (KDobs) can be measured by surface plasmon resonance (SPR) spectroscopy.
# Other docking was performed using modeling algorithms with state-of-the-art commercial drug discovery software (Schrodinger suite). […] Additionally, ligand-based approaches provided an alternative to structure based drug discovery. Ligand-based virtual screening methodologies can take into account shape and electrostatics (like ROCS) and the pharmacophoric features (acceptor, donor, hydrophobic, aromatic, etc.) of its functional groups. […] SPR interaction analyses of all other compounds was undertaken using a Biacore T100 with Control and Evaluation software kit.
# [2] = molecular target: T2, AKT1 PH-domain (Homo sapiens, UniProt P31749); test: SPR binding assay (Biacore T100), AKT1 PH-domain; conditions: Table 6; read-out: AKT KD
# T2 construct: The PH-domain His-fusion proteins (CNK1 and AKT1) were expressed and immobilized on a NTA chip; made in house
# How it was run: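 His-tagged AKT1 PH domain immobilized on NTA chip to ≤10,000 RU, Biacore T100. Small-molecule analytes injected at 50 μM to 0.010 μM, 30 μL/min, with 1-5% (v/v) DMSO in samples and running buffer.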
# [3] = Stability in biological media: dog plasma; format: in vitro ADME; conditions: Dog plasma (beagle), 50 μg/ml, 37° C.
# [4] = molecular target: T3, rHuman carboxyesterase 1 (Homo sapiens, UniProt P23141); test: Stability with carboxyesterase 1; format: in vitro ADME; conditions: rHuman carboxyesterase 1 24 U/ml, pH 7.4, 37° C.
# T3 sequence (P23141 18-567): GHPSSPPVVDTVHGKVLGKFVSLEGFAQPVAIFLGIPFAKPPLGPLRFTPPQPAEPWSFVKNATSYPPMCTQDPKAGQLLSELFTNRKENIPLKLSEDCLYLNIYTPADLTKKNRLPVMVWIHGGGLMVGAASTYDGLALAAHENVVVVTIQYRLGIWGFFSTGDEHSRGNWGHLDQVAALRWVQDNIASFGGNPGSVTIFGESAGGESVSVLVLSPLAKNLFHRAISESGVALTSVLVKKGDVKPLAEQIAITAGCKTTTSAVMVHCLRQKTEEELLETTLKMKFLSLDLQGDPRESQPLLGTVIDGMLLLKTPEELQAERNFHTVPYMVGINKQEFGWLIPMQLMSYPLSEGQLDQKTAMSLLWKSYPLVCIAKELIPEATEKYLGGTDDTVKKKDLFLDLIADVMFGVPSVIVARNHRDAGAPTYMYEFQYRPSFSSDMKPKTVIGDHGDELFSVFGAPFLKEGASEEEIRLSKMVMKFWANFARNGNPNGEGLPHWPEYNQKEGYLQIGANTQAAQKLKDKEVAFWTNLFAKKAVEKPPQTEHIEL
# [5] = molecular target: T4, rHuman carboxyesterase 2 (Homo sapiens, UniProt O00748); test: Stability with carboxyesterase 2; format: in vitro ADME; conditions: rHuman carboxyesterase 2 24 U/ml, pH 7.4, 37° C.
# T4 sequence (O00748 27-559): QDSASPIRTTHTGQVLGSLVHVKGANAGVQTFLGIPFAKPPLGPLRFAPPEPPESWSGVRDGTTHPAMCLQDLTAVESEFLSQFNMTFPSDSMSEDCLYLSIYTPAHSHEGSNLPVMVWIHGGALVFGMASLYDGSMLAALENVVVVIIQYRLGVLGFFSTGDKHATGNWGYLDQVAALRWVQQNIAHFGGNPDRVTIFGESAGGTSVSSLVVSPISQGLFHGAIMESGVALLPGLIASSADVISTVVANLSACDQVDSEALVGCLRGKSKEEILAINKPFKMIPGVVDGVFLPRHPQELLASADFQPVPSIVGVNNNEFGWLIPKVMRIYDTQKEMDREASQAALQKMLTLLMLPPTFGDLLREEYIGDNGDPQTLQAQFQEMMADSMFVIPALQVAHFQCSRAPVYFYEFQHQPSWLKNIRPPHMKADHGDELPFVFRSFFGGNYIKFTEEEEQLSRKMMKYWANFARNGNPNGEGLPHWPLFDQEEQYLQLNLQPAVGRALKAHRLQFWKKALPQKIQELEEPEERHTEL
# T2 sequence (P31749 5-108 limits assumed): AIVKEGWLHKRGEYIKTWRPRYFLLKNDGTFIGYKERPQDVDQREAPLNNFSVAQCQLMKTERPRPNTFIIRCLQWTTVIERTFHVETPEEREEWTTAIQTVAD
compound,measurement,setting,value
CCOC(=O)Cc1nn(Cc2nc(-c3ccc(C)cc3)cs2)c(=O)c2ccccc12 [Compound 7],Kd,[1],1.8 ± 0.6 µM
same,Kd,[2],17.3 µM
same,Half life,[3],9.3 h
same,Half life,[4],0.317 h
same,Half life,[5],1.65 h
